# Reference: PubChem BioAssay (NCI)
#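 Step 1: Grow cells in 96-well plates. Step 2: Expose to compound for 48 hours at 5 concentrations. Step 3: Interpolate endpoints linearly; if unreached, use highest concentration. GI50: concentration for 50% inhibition of growth. TGI: total growth inhibition.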
# Key:
# Test in all cases: DTP human tumour cell line panel, 48 h
# UACC-257 melanoma = system: UACC-257 melanoma
# NCI-H23 lung = system: NCI-H23 lung
# HCT-15 colon = system: HCT-15 colon
# HOP-92 NSCLC = system: HOP-92 NSCLC
# COLO 205 colon = system: COLO 205 colon
# K-562 leukemia = system: K-562 leukemia
# MOLT-4 leukemia = system: MOLT-4 leukemia
SMILES,TGI (UACC-257 melanoma),TGI (NCI-H23 lung),TGI (HCT-15 colon),TGI (HOP-92 NSCLC),TGI (COLO 205 colon),TGI (K-562 leukemia),TGI (MOLT-4 leukemia),GI50 (UACC-257 melanoma),GI50 (HCT-15 colon),GI50 (K-562 leukemia),GI50 (MOLT-4 leukemia)
CC1C[C@]2(C[C@@H](C)C(=O)O2)O[C@@H]2CC3(C)[C@@H]4CCC5C(C)(C)OC(=O)C[C@H]6OO[C@]4(CC[C@]3(C)C12)CC56O (stereo partly specified),> 100 µM,> 100 µM,> 100 µM,,,,,,,,
CCCCN[C@H]1C2C3CC4C5CC(C42)C1(C)C53 (stereo partly specified),> 100 µM,,> 100 µM,> 100 µM,> 100 µM,> 100 µM,> 100 µM,,,,
COc1ccc(-c2cc(-c3cc(Cl)cc(Br)c3O)[nH]c(=O)n2)cc1,42.2 µM,29.4 µM,,34.7 µM,29 µM,41.7 µM,35.3 µM,,,,
COC(=O)N/N=C(/CCC(=O)Nc1ccc(C)c(C)c1)CC(=O)C(C)(C)C,> 100 µM,> 100 µM,> 100 µM,,> 100 µM,> 100 µM,> 100 µM,,,,
CCOC(=O)C1=C(C)N(NC(N)=O)C(C)(O)C12CCOC2=O (stereo unspecified),> 100 µM,,> 100 µM,,,> 100 µM,> 100 µM,,,,
CCOC(=N)CC(=O)Nc1cccc(Cl)c1,> 100 µM,> 100 µM,,,> 100 µM,> 100 µM,> 100 µM,,,,
CC(=O)[CH-]C(=O)c1ccccc1.CC(=O)[CH-]C(=O)c1ccccc1.Cl.[O-]c1ccccn1.[O-]c1ccccn1.[Ti+4],> 100 µM,,> 100 µM,,,> 100 µM,> 100 µM,> 100 µM,> 100 µM,> 100 µM,> 100 µM
COc1cc2c(cc1OC)NC(=O)NC(Cc1ccc3c(c1)OCO3)CC2 (stereo unspecified),> 100 µM,> 100 µM,> 100 µM,> 100 µM,> 100 µM,> 100 µM,> 100 µM,,,,
CC1=C(Cl)C=CP(=O)(OC(C)C)C1 (stereo unspecified),> 100 µM,> 100 µM,> 100 µM,> 100 µM,> 100 µM,> 100 µM,> 100 µM,,,,
O=C(CC1(O)C(=O)Nc2ccccc21)c1ccc(O)cc1 (stereo unspecified),> 100 µM,> 100 µM,> 100 µM,> 100 µM,> 100 µM,> 100 µM,> 100 µM,,,,
Clc1ccc2nc(-c3ccccc3)nc(Cl)c2c1,> 100 µM,> 100 µM,> 100 µM,50.3 µM,> 100 µM,> 100 µM,> 100 µM,,,,
CC1=C(C(=O)Nc2ccc([N+](=O)[O-])cc2)C(c2ccc3c(c2)OCO3)C(C(=O)Nc2ccc([N+](=O)[O-])cc2)=C(C)N1,50.7 µM,57.9 µM,> 100 µM,38.9 µM,18.4 µM,> 100 µM,,,,,
CCOC(=O)[C@H]1Nc2ccc([N+](=O)[O-])cc2C2c3ccccc3CC21 (stereo partly specified),40.2 µM,73.6 µM,41.5 µM,,> 100 µM,52.2 µM,69.1 µM,,,,
Cc1ccc(-c2cc(=O)c3cc(C)c(C)c(C(=O)O)c3o2)cc1N,> 100 µM,> 100 µM,> 100 µM,,> 100 µM,> 100 µM,> 100 µM,,,,
C=CC1(NS(=O)(=O)c2ccc(C)cc2)CCC(C(C)(C)C)CC1 (stereo unspecified),> 100 µM,,> 100 µM,,> 100 µM,> 100 µM,> 100 µM,,,,
CC1(C)C=N[N+]2(C)C3C=CC(CC3)C12 (stereo unspecified),> 100 µM,> 100 µM,> 100 µM,> 100 µM,> 100 µM,> 100 µM,> 100 µM,,,,
O=[N+]([O-])c1ccccc1C=NC12CC3CC(CC(C3)C1)C2,> 100 µM,> 100 µM,> 100 µM,> 100 µM,> 100 µM,> 100 µM,> 100 µM,,,,
CN[C@@H](C)[C@H](N)c1ccccc1,> 100 µM,> 100 µM,> 100 µM,> 100 µM,> 100 µM,> 100 µM,> 100 µM,,,,
CSc1nc(NC2OC(COC(C)=O)C(OC(C)=O)C(OC(C)=O)C2OC(C)=O)c(-c2csc(N)n2)c(=O)n1C (stereo unspecified),> 100 µM,> 100 µM,> 100 µM,63.1 µM,> 100 µM,> 100 µM,> 100 µM,,,,
CNS(=O)(=O)NN(C)S(=O)(=O)c1ccc2ccccc2c1,> 100 µM,> 100 µM,> 100 µM,,> 100 µM,> 100 µM,> 100 µM,,,,
Cc1ccc(NC(=S)SCCC(=O)O)cc1,> 100 µM,> 100 µM,> 100 µM,,> 100 µM,> 100 µM,> 100 µM,,,,
COc1ccc(/C(Cl)=C(\c2ccc(OCCN(C)C)cc2)c2ccc(OC(=O)C(C)(C)C)cc2)cc1,,29.1 µM,22.4 µM,34 µM,26.8 µM,14.3 µM,14.7 µM,,,,
C=C1C2CC(OC(C)=O)C3(C)C(c4ccoc4)OC(=O)[C@@H](O)[C@]13OC1C[C@H](OC(C)=O)C(C)(C)[C@H](CC(=O)OC)[C@]12C (stereo partly specified),,> 100 µM,> 100 µM,> 100 µM,> 100 µM,> 100 µM,> 100 µM,,,,
